Measurements taken from patent publication US12102648B2, “Orally-bioavailable nucleoside analogs” (priority 2021, dated 2024).
Where two headings read alike, the source gives them in different places.

Experiment: in vitro
Assay type: in vitro ADME
Details: human
Outline: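 Permeability measured in both directions across 19-day Caco-2 layers with TEER above 600 […], incubated at 37° C without shaking; donor and receiver sampled at 10 and 90 min for LC/MS/MS. Derived values: Papp (cm/s), efflux ratio, recovery.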

[1] = Caco-2 monolayer, apical to basolateral, 90-minute incubation, read-out: Papp, A-B
[2] = Caco-2 monolayer, basolateral to apical, 90-minute incubation, read-out: Papp, B-A
[3] = Caco-2 monolayer, ER>2 indicates potential efflux transporter substrate, read-out: ER (efflux ratio)

CC(C)CC(=O)OC[C@H]1O[C@@](C#N)(c2ccc3c(N)ncnn23)[C@H](O)[C@@H]1O [Compound 9, ((2R,3S,4R,5R)-5-(4-aminopyrrolo[2,1-f][1,2,4]triazin-7-yl)-5-cyano-3,4-dihydroxytetrahydrofuran-2-yl)methyl 3-methylbutanoate]
Papp A→B at 90 min (Caco-2): 3 ×10⁻⁶ cm/s | Papp B→A at 90 min (Caco-2): 4.7 ×10⁻⁶ cm/s | efflux ratio at 90 min (Caco-2): 1.6

CCC(=O)OC[C@H]1O[C@@](C#N)(c2ccc3c(N)ncnn23)[C@H](O)[C@@H]1OC(=O)Cc1ccccc1 [Compound 68, ((2R,3S,4R,5R)-5-(4-aminopyrrolo[2,1-f][1,2,4]triazin-7-yl)-5-cyano-4-hydroxy-3-(2-phenylacetoxy)tetrahydrofuran-2-yl)methyl propionate]
Papp A→B at 90 min [1]: 3.3 ×10⁻⁶ cm/s | Papp B→A at 90 min [2]: 9.3 ×10⁻⁶ cm/s | efflux ratio at 90 min [3]: 2.8

CCCCCOC(=O)Nc1ncnn2c([C@]3(C#N)O[C@H](COC(C)=O)[C@@H](O)[C@H]3O)ccc12 [Compound 87, ((2R,3S,4R,5R)-5-cyano-3,4-dihydroxy-5-(4-(((pentyloxy)carbonyl)amino)pyrrolo[2,1-f][1,2,4]triazin-7-yl)tetrahydrofuran-2-yl)methyl acetate]
Papp A→B at 90 min (Caco-2): 5.5 ×10⁻⁶ cm/s | Papp B→A at 90 min (Caco-2): 14 ×10⁻⁶ cm/s | efflux ratio at 90 min (Caco-2): 2.7

CC(=O)OC[C@H]1O[C@@](C#N)(c2ccc3c(N)ncnn23)[C@H](O)[C@@H]1O [Compound 13, ((2R,3S,4R,5R)-5-(4-aminopyrrolo[2,1-f][1,2,4]triazin-7-yl)-5-cyano-3,4-dihydroxytetrahydrofuran-2-yl)methyl acetate]
Papp A→B at 90 min (Caco-2): 0.2 ×10⁻⁶ cm/s | Papp B→A at 90 min (Caco-2): 0.6 ×10⁻⁶ cm/s | efflux ratio at 90 min (Caco-2): 2.7

CC(=O)O[C@H]1[C@@H](O)[C@](C#N)(c2ccc3c(N)ncnn23)O[C@@H]1COC(=O)Cc1ccccc1 [Compound 45, ((2R,3S,4R,5R)-3-acetoxy-5-(4-aminopyrrolo[2,1-f][1,2,4]triazin-7-yl)-5-cyano-4-hydroxytetrahydrofuran-2-yl)methyl 2-phenylacetate]
Papp A→B at 90 min [1]: 0.8 ×10⁻⁶ cm/s | Papp B→A at 90 min [2]: 3.4 ×10⁻⁶ cm/s | efflux ratio at 90 min [3]: 4.3

CC(C)[C@H](N)C(=O)OC[C@H]1O[C@@](C#N)(c2ccc3c(N)ncnn23)[C@H](O)[C@@H]1OC(=O)Cc1ccccc1 [Compound 36, ((2R,3S,4R,5R)-5-(4-aminopyrrolo[2,1-f][1,2,4]triazin-7-yl)-5-cyano-4-hydroxy-3-(2-phenylacetoxy)tetrahydrofuran-2-yl)methyl L-valinate]
Papp A→B at 90 min [1]: 1.1 ×10⁻⁶ cm/s | Papp B→A at 90 min [2]: 10.3 ×10⁻⁶ cm/s | efflux ratio at 90 min [3]: 9.8

CCCC(=O)Nc1ncnn2c([C@]3(C#N)O[C@H](COC(=O)CC4CCCCC4)[C@@H](OCOC(=O)C(C)(C)C)[C@H]3O)ccc12 [Compound 409, (((2R,3S,4R,5R)-5-(4-butyramidopyrrolo[2,1-f][1,2,4]triazin-7-yl)-5-cyano-2-((2-cyclohexylacetoxy)methyl)-4-hydroxytetrahydrofuran-3-yl)oxy)methyl pivalate]
Papp A→B at 90 min (Caco-2): 0.46 ×10⁻⁶ cm/s | Papp B→A at 90 min (Caco-2): 0.1 ×10⁻⁶ cm/s | efflux ratio at 90 min (Caco-2): 0.22

CC(=O)N[C@H](C(=O)OC[C@H]1O[C@@](C#N)(c2ccc3c(N)ncnn23)[C@H](O)[C@@H]1OC(=O)CC1CCCCC1)C(C)(C)C [Compound 413, ((2R,3S,4R,5R)-5-(4-aminopyrrolo[2,1-f][1,2,4]triazin-7-yl)-5-cyano-3-(2-cyclohexylacetoxy)-4-hydroxytetrahydrofuran-2-yl)methyl (S)-2-acetamido-3,3-dimethylbutanoate]
Papp A→B at 90 min (Caco-2): 4.3 ×10⁻⁶ cm/s | Papp B→A at 90 min (Caco-2): 13.8 ×10⁻⁶ cm/s | efflux ratio at 90 min (Caco-2): 3.2

Cc1oc(=O)oc1COC(=O)Nc1ncnn2c([C@]3(C#N)O[C@H](COC(=O)Cc4ccccc4)[C@@H](OC(=O)[C@@H](N)C(C)C)[C@H]3O)ccc12 [Compound 383, (2R,3S,4R,5R)-5-cyano-4-hydroxy-5-(4-((((5-methyl-2-oxo-1,3-dioxol-4-yl)methoxy)carbonyl)amino)pyrrolo[2,1-f][1,2,4]triazin-7-yl)-2-((2-phenylacetoxy)methyl)tetrahydrofuran-3-yl L-valinate]
Papp A→B at 90 min [1]: < 1 ×10⁻⁶ cm/s | Papp B→A at 90 min [2]: < 1 ×10⁻⁶ cm/s

CCC(=O)O[C@H]1[C@@H](O)[C@](C#N)(c2ccc3c(NC(=O)OCOC(C)=O)ncnn23)O[C@@H]1COC(=O)[C@@H](N)C(C)C [Compound 364, ((2R,3S,4R,5R)-5-(4-(((acetoxymethoxy)carbonyl)amino)pyrrolo[2,1-f][1,2,4]triazin-7-yl)-5-cyano-4-hydroxy-3-(propionyloxy)tetrahydrofuran-2-yl)methyl L-valinate]
Papp A→B at 90 min (Caco-2): 1.8 ×10⁻⁶ cm/s | Papp B→A at 90 min (Caco-2): 2 ×10⁻⁶ cm/s | efflux ratio at 90 min (Caco-2): 1.1

CCC(=O)OC[C@H]1O[C@@](C#N)(c2ccc3c(N)ncnn23)[C@H](O)[C@@H]1OC(=O)C(C)C [Compound 70, [(2R,3S,4R,5R)-5-{4-aminopyrrolo[2,1-f][1,2,4]triazin-7-yl}-5-cyano-4-hydroxy-3-[(2-methylpropanoyl)oxy]oxolan-2-yl]methyl propanoate]
Papp A→B at 90 min (Caco-2): 1.8 ×10⁻⁶ cm/s | Papp B→A at 90 min (Caco-2): 1.6 ×10⁻⁶ cm/s | efflux ratio at 90 min (Caco-2): 0.82

CC(=O)OC[C@H]1O[C@@](C#N)(c2ccc3c(N)ncnn23)[C@H](O)[C@@H]1OC(=O)CC(C)C [Compound 49, (2R,3S,4R,5R)-2-(acetoxymethyl)-5-(4-aminopyrrolo[2,1-f][1,2,4]triazin-7-yl)-5-cyano-4-hydroxytetrahydrofuran-3-yl 3-methylbutanoate]
Papp A→B at 90 min (Caco-2): 3.9 ×10⁻⁶ cm/s | Papp B→A at 90 min (Caco-2): 2.7 ×10⁻⁶ cm/s | efflux ratio at 90 min (Caco-2): 0.7

N#C[C@@]1(c2ccc3c(N)ncnn23)O[C@H](COC(=O)CC2CCC3(CCCC3)CC2)[C@@H](O)[C@H]1O [Compound 279, ((2R,3S,4R,5R)-5-(4-aminopyrrolo[2,1-f][1,2,4]triazin-7-yl)-5-cyano-3,4-dihydroxytetrahydrofuran-2-yl)methyl 2-(spiro[4.5]decan-8-yl)acetate]
Papp A→B at 90 min (Caco-2): 1.4 ×10⁻⁶ cm/s | Papp B→A at 90 min (Caco-2): 0.9 ×10⁻⁶ cm/s | efflux ratio at 90 min (Caco-2): 0.64

CNc1nc(N)nc2c1ncn2[C@@H]1O[C@H](COC(=O)C(C)C)[C@@H](OC(=O)CC2CCCCC2)[C@@]1(C)F [Compound 195, ((2R,3R,4R,5R)-5-(2-amino-6-(methylamino)-9H-purin-9-yl)-3-(2-cyclohexylacetoxy)-4-fluoro-4-methyltetrahydrofuran-2-yl)methyl isobutyrate]
Papp A→B at 90 min (Caco-2): 6.3 ×10⁻⁶ cm/s | Papp B→A at 90 min (Caco-2): 1.1 ×10⁻⁶ cm/s | efflux ratio at 90 min (Caco-2): 0.18

CC(C)CC(=O)OC[C@H]1O[C@@](C#N)(c2ccc3c(N)ncnn23)[C@H](O)[C@@H]1OC(=O)CC(C)C [Compound 17, (2R,3S,4R,5R)-5-(4-aminopyrrolo[2,1-f][1,2,4]triazin-7-yl)-5-cyano-4-hydroxy-2-(((3-methylbutanoyl)oxy)methyl)tetrahydro furan-3-yl 3-methylbutanoate]
Papp A→B at 90 min (Caco-2): 15 ×10⁻⁶ cm/s | Papp B→A at 90 min (Caco-2): 21 ×10⁻⁶ cm/s | efflux ratio at 90 min (Caco-2): 1.4

CNc1nc(N)nc2c1ncn2[C@@H]1O[C@H](COC(=O)C(C)C)[C@@H](O)[C@@]1(C)F [Compound 3, ((2R,3R,4R,5R)-5-(2-amino-6-(methylamino)-9H-purin-9-yl)-4-fluoro-3-hydroxy-4-methyltetrahydrofuran-2-yl)methyl isobutyrate]
Papp A→B at 90 min (Caco-2): 1.8 ×10⁻⁶ cm/s | Papp B→A at 90 min (Caco-2): 3.5 ×10⁻⁶ cm/s | efflux ratio at 90 min (Caco-2): 2
